Assay results from the NIST ThermoML archive (doi:10.1021/acs.jced.6b00526).

Experiment: xn = mol fraction of the nth substance listed
Conditions: 100 kPa, Liquid; for mass density: Vibrating tube method; for viscosity: Falling or rolling sphere viscometry

OCCO [1,2-ethanediol] + O
Conditions	mass density, 288.15 K [kg/m3]	mass density, 293.15 K [kg/m3]	mass density, 298.15 K [kg/m3]	mass density, 303.15 K [kg/m3]	mass density, 308.15 K [kg/m3]	mass density, 313.15 K [kg/m3]	mass density, 318.15 K [kg/m3]	viscosity, 293.15 K [mPa·s]	viscosity, 298.15 K [mPa·s]	viscosity, 303.15 K [mPa·s]
x2 = 0	–	1113.3	–	1106.8	–	1099.1	–	21.13	17.24	14.23
x2 = 0.1037	1114.7	1111.1	1108	1104.4	1100.5	1096.7	1093.8	–	–	–
x2 = 0.1105	–	–	–	–	–	–	–	17.58	14.33	11.86
x2 = 0.1593	1113.6	–	1106.9	–	1099.3	1095.4	1092.4	–	–	–
x2 = 0.2014	–	–	–	–	–	–	–	14.95	12.19	10.14
x2 = 0.2189	1111.9	1108.3	1105.2	1101.6	1097.6	1093.7	1090.7	–	–	–
x2 = 0.2669	–	1106.8	1103.6	1100.1	–	1092.1	–	–	–	–
x2 = 0.3002	–	–	–	–	–	–	–	12.4	10.18	8.45
x2 = 0.3165	1108.3	1104.8	1101.7	1098.2	1094.2	1090.3	1087.3	–	–	–
x2 = 0.3496	1106.8	–	1100.3	1096.8	1092.9	–	1086	–	–	–
x2 = 0.3994	1104.4	1101.1	1098	1094.4	1090.6	1086.9	1083.9	–	–	–
x2 = 0.4011	–	–	–	–	–	–	–	10.05	8.31	6.968
x2 = 0.4449	1101.8	1098.5	–	1092.2	1088.4	1084.6	1081.6	–	–	–
x2 = 0.4969	–	–	–	–	–	–	–	8.185	6.791	5.653
x2 = 0.5061	1098	1094.8	1091.8	1088.5	1084.7	1081.1	1078.1	–	–	–
x2 = 0.5563	1094.5	1091.4	1088.4	1085.1	1081.3	1077.8	1074.6	–	–	–
x2 = 0.6022	–	–	–	–	–	–	–	6.297	5.208	4.396
x2 = 0.6055	1090.6	1087.4	1084.5	1081.3	1077.6	1074	1071.1	–	–	–
x2 = 0.6518	1085.7	1082.6	1079.7	1076.5	1072.9	1069.5	1066.3	–	–	–
x2 = 0.6995	–	–	–	–	–	–	–	4.584	3.884	3.345
x2 = 0.7001	1079.8	1076.8	1073.7	1070.6	1067.3	1064	1060.7	–	–	–
x2 = 0.7482	1072.6	1069.7	1066.7	1063.7	1060.6	1057.4	1054.3	–	–	–
x2 = 0.7994	–	–	–	–	–	–	–	3.122	2.682	2.328
x2 = 0.8015	1063	1060.1	1057.4	1054.5	1051.5	1048.4	1045.6	–	–	–
x2 = 0.8444	1052.6	1050.2	1048	1045.5	1042.6	1039.6	1037.1	–	–	–
x2 = 0.8997	–	–	–	–	–	–	–	1.918	1.664	1.446
x2 = 0.901	1036.4	1034.6	1032.8	1030.7	1028	1025.4	1023.5	–	–	–

OCCCO [propan-1,3-diol] + O
Conditions	mass density, 288.15 K [kg/m3]	mass density, 293.15 K [kg/m3]	mass density, 298.15 K [kg/m3]	mass density, 303.15 K [kg/m3]	mass density, 308.15 K [kg/m3]	mass density, 313.15 K [kg/m3]	mass density, 318.15 K [kg/m3]	viscosity, 293.15 K [mPa·s]	viscosity, 298.15 K [mPa·s]	viscosity, 303.15 K [mPa·s]
x2 = 0	1056.2	1053.2	1049.9	1046.7	1043.5	1040.4	1037.9	51.55	40.8	32.74
x2 = 0.0749	–	–	–	–	–	–	–	46.34	36.93	29.67
x2 = 0.1625	1056.2	1053.1	1049.7	1046.4	1043.1	1039.9	1037.4	40.76	32.58	26.38
x2 = 0.1737	1056.2	1053.1	1049.7	1046.4	1043.1	1040	1037.4	–	–	–
x2 = 0.2386	1056.4	1053.3	1049.9	1046.6	1043.2	1040.1	1037.5	–	–	–
x2 = 0.239	–	–	–	–	–	–	–	35.86	29.01	23.45
x2 = 0.2519	1056.5	1053.4	1049.9	1046.6	1043.3	1040.1	1037.5	–	–	–
x2 = 0.3216	1056.6	1053.5	1050.1	1046.8	1043.5	1040.2	1037.6	–	–	–
x2 = 0.3361	–	–	–	–	–	–	–	29.72	24.27	19.97
x2 = 0.3669	1056.4	1053.3	1050	1046.7	1043.3	1040.1	1037.5	–	–	–
x2 = 0.4223	–	–	–	–	–	–	–	24.46	20.06	16.66
x2 = 0.4238	1056	1053	1049.6	1046.4	1043.1	1039.9	1037.3	–	–	–
x2 = 0.4553	1055.6	1052.6	1049.3	1046.1	1042.8	1039.6	1037	–	–	–
x2 = 0.5075	1054.7	1051.8	1048.5	1045.3	1042.1	1038.9	1036.2	–	–	–
x2 = 0.5134	–	–	–	–	–	–	–	19.25	15.64	13.18
x2 = 0.5501	1053.7	1050.8	1047.6	1044.4	1041.2	1038	1035.4	–	–	–
x2 = 0.6009	1052.1	1049.2	1046.1	1042.9	1039.7	1036.5	1033.9	–	–	–
x2 = 0.6309	–	–	–	–	–	–	–	13.16	10.59	8.95
x2 = 0.653	1049.9	1047.1	1043.9	1040.8	1037.6	1034.4	1031.8	–	–	–
x2 = 0.7146	1046.3	1043.5	1040.4	1037.2	1034	1030.9	1028.4	–	–	–
x2 = 0.7446	–	–	–	–	–	–	–	7.99	6.43	5.46
x2 = 0.7532	1043.2	1040.5	1037.4	1034.3	1031.1	1028.1	1025.5	–	–	–
x2 = 0.804	1038.3	1035.5	1032.6	1029.6	1026.6	1023.5	1021.1	–	–	–
x2 = 0.8508	1032.1	1029.6	1026.9	1024.1	1021.3	1018.4	1016.1	–	–	–
x2 = 0.872	–	–	–	–	–	–	–	3.72	3.13	2.78
x2 = 0.9021	1023.5	1021.3	1018.9	1016.6	1014	1011.4	1009.2	–	–	–
